Assay results from patent publication US10391110B2, “Composition for preventing or treating vascular leak syndrome” (INTELLIGENT SYNTHETIC BIOLOGY CENTER, priority 2015, dated 2019).

Tests used:
[1] = tested on: human umbilical vascular endothelial cells (HUVECs); test: tube formation assay in HUVECs; format: cell-based; conditions: 25 μM ginsenoside, 4 hours, vs DMSO negative control and VEGF-A positive control
Experimental: (§1) The angiogenesis-promoting activities between human umbilical vascular endothelial cells (HUVECs) and human retinal microvascular endothelial cells (HRMECs) using 10 kinds of ginsenoside compounds (CK, Rh2, Rg3, Rb1, F2, Rd, Re, Rg1, Rh1, or F1). That is, HUVECs or HRMECs were cultured in an incubator (5% CO2 and 37° C.) using 2% FBS, EGM-2 (Lonza, Walkersville, Md., USA) medium. A 96-well plate was coated with Matrigel (BD Biosciences) for 1 hour. Then, HUVECs or HRMECs (10^4 cells/well, respectively), which were mixed with a 0.1% FBS-containing EBM-2 medium respectively treated with 25 μM of ginsenoside compounds (CK, Rh2, Rg3, Rb1, F2, Rd, Re, Rg1, Rh1, or F1), were seeded on the 96-well plate. After 4 hours of incubation, a tube formation assay was performed and the number of tubes formed was compared by microscopic observation and photographing (FIGS. 1a, 1b, 2a, and 2b). In particular, the cells cultured after treating with DMSO instead of ginsenoside were used as a negative control, and the cells cultured after treating with VEGF-A, which is known to promote angiogenesis, were used as a positive control.
(§2) The HUVECs or HRMECs, which were cultured by the method of Example 1, were cultured after treating at various concentrations (12.5, 25, or 50 μM) of ginsenoside F1 or Rh1 selected from Example 1 for 4 hours, and the number of tubes formed was compared by performing a tube formation assay (FIGS. 3 and 4). In particular, the cells cultured after treating with DMSO instead of ginsenoside were used as a negative control and the cells cultured after treating with VEGF-A, which is known to promote angiogenesis, were used as a positive control.

[2] = tested on: human retinal microvascular endothelial cells (HRMECs); test: tube formation assay in HRMECs; format: cell-based; conditions: 25 μM ginsenoside, 4 hours, vs DMSO negative control and VEGF-A positive control
Experimental: as §1, §2

ICR mice = test: VEGF-A-induced vascular leakage in mouse ears (Evans blue); format: in vivo; conditions: ear intradermal 10 μL, ginsenoside 1.25 μM with VEGF-A 250 μg, 30 minutes
Experimental: Seven-week-old male ICR mice were injected with 1% Evans blue dye (200 μL) into the tail vein and allowed to react for 10 minutes to dye the blood in blue.
Then, the mice were intradermally injected in an amount of 10 μL through the ears with PBS (negative control), VEGF-A (250 μg, positive control), ginsenoside F1 (1.25 μM), ginsenoside Rh1 (1.25 μM), VEGF-A (250 μg)/ginsenoside F1 (1.25 μM), or VEGF-A (250 μg)/ginsenoside Rh1 (1.25 μM), respectively.
Thirty minutes thereafter, the mice were subjected to euthanasia and their ears were removed. After confirming the amount of blood leakage by the naked eye (FIG. 10A), the ears were put in formamide and fixed at 37° C. for 24 hours. Then, the effects of F1 or Rh1 on the inhibition of blood leakage were quantitatively evaluated by measuring the absorbance at 620 nm (FIG. 10B).

HUVECs [3] = test: vascular permeability assay, VEGF-A-treated HUVECs; format: cell-based, human; conditions: for vascular leakage induced by VEGF-A: HUVECs pretreated with 25 μM ginsenoside for 1 hour, then VEGF-A; for level of vascular leakage, pretreatment plus VEGF-A compared to ginsenoside alone: HUVECs, 25 μM ginsenoside pretreatment 1 hour then VEGF-A vs ginsenoside alone
Experimental: The HUVECs, cultured by a method described in Example 1, were pretreated with 25 μM ginsenoside F1 or Rh1 for 1 hour selected from Example 1, treated with VEGF-A, and then subjected to a vascular permeability assay (FIG. 9). In particular, the cells cultured after treating with DMSO instead of ginsenoside were used as a negative control; the cells cultured after treating with VEGF-A, which is known to promote angiogenesis, were used as a positive control; and the cells pretreated with ginsenoside F1 or Rh1 and not treated with VEGF-A were used as a comparative group.

HUVECs [4] = test: MTT cell proliferation assay in HUVECs; format: cell-based, human; conditions: 48 hours, concentrations 0, 3.125, 6.25, 12.5, or 25 μM
Experimental: The HUVECs or HRMECs, which were cultured by the method of Example 1, were cultured after treating at various concentrations (0, 3.125, 6.25, 12.5, or 25 μM) of three kinds of ginsenosides (F1, Rh1, or Rg1), which were confirmed to promote tube formation in Example 1, for 48 hours, and the level of cell proliferation was compared by performing the MTT assay with respect to the cultured cells (FIGS. 5 and 6). In particular, the cells cultured after treating with DMSO instead of ginsenoside were used as a negative control, and the cells cultured after treating with VEGF-A, which is known to promote angiogenesis, were used as a positive control.

| Molecule | number of tubes formed (tube formation) [1] | number of tubes formed (tube formation) [2] | vascular leakage symptoms induced by VEGF-A (Evans blue, absorbance at 620 nm) (ICR mice) | vascular leakage induced by VEGF-A (HUVECs [3]) | level of vascular leakage, pretreatment plus VEGF-A compared to ginsenoside alone (HUVECs [3]) | promotion of cell proliferation (HUVECs [4]) |
| --- | --- | --- | --- | --- | --- | --- |
| CC(C)=CCC[C@](C)(O[C@@H]1O[C@H](CO)[C@@H](O)[C@H](O)[C@H]1O)[C@H]1CC[C@]2(C)[C@@H]1[C@H](O)C[C@@H]1[C@@]3(C)CC[C@H](O)C(C)(C)[C@@H]3CC[C@]12C [ginsenoside CK] | effect of inhibiting tube formation | effect of inhibiting tube formation | – | – | – | – |
| CC(C)=CCCC(C)(OC1OC(CO)C(O)C(O)C1O)C1CCC2(C)C1C(O)CC1C3(C)CCC(O)C(C)(C)C3C(O)CC12C [ginsenoside F1, 20-O-β-D-glucopyranosyl-20(S)-protopanaxatriol] | effect of promoting tube formation at a higher level compared to that of the positive control | effect of promoting tube formation at a higher level compared to that of the positive control | effectively inhibit the vascular leakage symptoms induced by VEGF-A | vascular leakage was inhibited by the pretreatment | further reduced compared to when the HUVECs were treated with ginsenoside F1 or Rh1 alone | about 20% |
| CC(C)=CCC[C@](C)(O[C@@H]1O[C@H](CO)[C@@H](O)[C@H](O)[C@H]1O)[C@H]1CC[C@]2(C)[C@@H]1[C@H](O)C[C@@H]1[C@@]3(C)CC[C@H](O[C@@H]4O[C@H](CO)[C@@H](O)[C@H](O)[C@H]4O)C(C)(C)[C@@H]3CC[C@]12C [ginsenoside F2] | did not show any noticeable difference | effect of promoting tube formation | – | – | – | – |
| CC(C)=CCC[C@](C)(O[C@@H]1O[C@H](CO[C@@H]2O[C@H](CO)[C@@H](O)[C@H](O)[C@H]2O)[C@@H](O)[C@H](O)[C@H]1O)[C@H]1CC[C@]2(C)[C@@H]1[C@H](O)C[C@@H]1[C@@]3(C)CC[C@H](O[C@@H]4O[C@H](CO)[C@@H](O)[C@H](O)[C@H]4O[C@@H]4O[C@H](CO)[C@@H](O)[C@H](O)[C@H]4O)C(C)(C)[C@@H]3CC[C@]12C [ginsenoside Rb1] | did not show any noticeable difference | effect of promoting tube formation | – | – | – | – |
| CC(C)=CCC[C@](C)(O[C@@H]1O[C@H](CO)[C@@H](O)[C@H](O)[C@H]1O)[C@H]1CC[C@]2(C)[C@@H]1[C@H](O)C[C@@H]1[C@@]3(C)CC[C@H](O[C@@H]4O[C@H](CO)[C@@H](O)[C@H](O)[C@H]4O[C@@H]4O[C@H](CO)[C@@H](O)[C@H](O)[C@H]4O)C(C)(C)[C@@H]3CC[C@]12C [ginsenoside Rd] | effect of promoting tube formation | effect of promoting tube formation | – | – | – | – |
| CC(C)=CCC[C@](C)(O[C@@H]1O[C@H](CO)[C@@H](O)[C@H](O)[C@H]1O)[C@H]1CC[C@]2(C)[C@@H]1[C@H](O)C[C@@H]1[C@@]3(C)CC[C@H](O)C(C)(C)[C@@H]3[C@@H](O[C@@H]3O[C@H](CO)[C@@H](O)[C@H](O)[C@H]3O[C@@H]3O[C@@H](C)[C@H](O)[C@@H](O)[C@H]3O)C[C@]12C [ginsenoside Re] | effect of promoting tube formation | effect of promoting tube formation | – | – | – | – |
| CC(C)=CCC[C@](C)(O[C@@H]1O[C@H](CO)[C@@H](O)[C@H](O)[C@H]1O)[C@H]1CC[C@]2(C)[C@@H]1[C@H](O)C[C@@H]1[C@@]3(C)CC[C@H](O)C(C)(C)[C@@H]3[C@@H](O[C@@H]3O[C@H](CO)[C@@H](O)[C@H](O)[C@H]3O)C[C@]12C [ginsenoside Rg1] | effect of promoting tube formation | effect of promoting tube formation | – | – | – | about 60% |
| CC(C)=CCC[C@](C)(O)[C@H]1CC[C@]2(C)[C@@H]1[C@H](O)C[C@@H]1[C@@]3(C)CC[C@H](O[C@@H]4O[C@H](CO)[C@@H](O)[C@H](O)[C@H]4O[C@@H]4O[C@H](CO)[C@@H](O)[C@H](O)[C@H]4O)C(C)(C)[C@@H]3CC[C@]12C [ginsenoside Rg3] | effect of inhibiting tube formation | effect of inhibiting tube formation | – | – | – | – |
| CC(C)=CCCC(C)(O)C1CCC2(C)C1C(O)CC1C3(C)CCC(O)C(C)(C)C3C(OC3OC(CO)C(O)C(O)C3O)CC12C [ginsenoside Rh1, 6-O-β-D-glucopyranoside-20(S)-protopanaxatriol] | effect of promoting tube formation at a higher level compared to that of the positive control | effect of promoting tube formation at a higher level compared to that of the positive control | effectively inhibit the vascular leakage symptoms induced by VEGF-A | vascular leakage was inhibited by the pretreatment | further reduced compared to when the HUVECs were treated with ginsenoside F1 or Rh1 alone | about 100% |
| ginsenoside Rb2 | effect of inhibiting tube formation | effect of inhibiting tube formation | – | – | – | – |
